From patent US7705016B2, “Regulation of food intake by modulation of long-chain fatty acyl-CoA levels in the hypothalamus” (Albert Einstein College of Medicine of Yeshiva University, priority 2003, dated 2010)

Experiments:
[1] = tested on: NPY, AgRP and POMC mRNA in ARC; experiment: Neuropeptide (NPY, AgRP, POMC) mRNA in ARC by real-time PCR; assay type: in vivo, rat; settings: ICV
Source text: In order to begin investigating the mechanisms responsible for the anorectic properties of ARC CPT1 inhibition, we next analyzed the effect of CPT1L-Ribo on the gene expression of key ARC peptides. […] Overall, these anorectic effects support the notion that changes in the neuronal levels of LC-CoAs may directly control food intake via their action on discrete hypothalamic centers. Furthermore, increases in LC-CoAs levels in selective hypothalamic neurons are likely to account for the potent effects of oleic acid and of FAS inhibitors on food intake (Loftus et al., 2000; Obici et al., 2002a; Makimura et al., 2001; Shimokawa et al., 2002).
Total RNA was isolated with Trizol (Invitrogen, Carlsbad, Calif.) from individual hypothalamic nuclei (i.e. Arcuate, PVN etc.). Single strand cDNA synthesis and real-time PCR reactions were performed as previously described (Obici et al., 2002b). CPT1L and CPT1M mRNA specific primers contained the following sequences: CPT1L forward (F) 5′-[…]-3′ (SEQ ID NO:5) and reverse (R) primer, 5′-[…]-3′ (SEQ ID NO:6); CPT1M F 5′-[…]-3′ (SEQ ID NO:7) and R 5′-[…]-3′ (SEQ ID NO:8). Hypothalamic neuropeptides expression was performed by real-time PCR using the following primers: NPY-F 5′-[…]-3′ (SEQ ID NO:9), R 5′-[…]-3′ (SEQ ID NO:10), POMC-F 5′-CCAGGCAACGGAGATGAAC-3′ (SEQ ID NO:11), R 5′-TCACTGGCCCTTCTTGTGC-3′ (SEQ ID NO:12), AgRP-F 5′-[…]-3′ (SEQ ID NO:13), R 5′-[…]-3′ (SEQ ID NO:14), and β-actin F 5′-[…]-3′ (SEQ ID NO:15), R 5′-[…]-3′ (SEQ ID NO:16). Transcript levels are expressed as copy number of each gene normalized to copy number for β-actin. Copy number for each transcript was measured against a standard curve, which was obtained by PCR runs of each primer set with serial dilutions of a plasmid containing the target template sequences.

PEPCK mRNA = experiment: Hepatic PEPCK mRNA after ICV OA (northern blot); assay type: in vivo, rat; settings: either group (HF55, HF140)
Procedure: Northern Blot Analysis. Total RNA was isolated from hypothalami and liver with Trizol (Invitrogen Corp., California, USA). NPY, Glc-6-Pase or PEPCK expression was measured by northern blot analysis. Hypothalamic RNA was analyzed using probes for prepro-NPY and β-actin. To assess the effect of ICV OA on the expression of hepatic enzymes, total RNA was isolated from freeze-clamped liver tissues from rats subjected to insulin clamp studies. Glc-6-Pase and PEPCK cDNA were obtained as previously described (Combs et al., 2001; Massillon et al., 1996; 1998). Probes were labeled with [α-^32P] dCTP using a random primer kit (Stratagene). Quantification was performed by scanning densitometry, normalizing for β-actin signal and 18S ribosomal RNA to correct for loading variabilities. Effect of ICV OA on the hepatic expression of Glc-6-Pase and PEPCK. The potent effects of the central administration of OA on hepatic glucose fluxes prompted us to examine whether changes in the liver mRNA levels of key metabolic enzymes can partly account for these effects. Thus, we next measured the liver abundance of Glc-6-Pase and PEPCK mRNA as a function of 18S ribosomal RNA (FIG. 9d) or β-actin mRNA (not shown) in tissue samples obtained after ICV infusion of either OA or vehicle in caloric restricted and over-fed rats. […]

hypothalamic NPY mRNA = experiment: Hypothalamic NPY expression after ICV OA (northern blot); assay type: in vivo, rat; settings: 30 nmol ICV bolus
Procedure: NPY Expression Studies. For analysis of NPY expression, we studied two groups of rats, HF55 and HF140. After three days on the respective diet regimen, ICV Vehicle (10% HPB in aCSF) or ICV OA (30 nmol) was injected as a bolus into the third cerebral ventricle one hour before the start of the dark cycle. Food was withdrawn and hypothalami were harvested 16 hrs following injection. Northern Blot Analysis. Total RNA was isolated from hypothalami and liver with Trizol (Invitrogen Corp., California, USA). NPY, Glc-6-Pase or PEPCK expression was measured by northern blot analysis. Hypothalamic RNA was analyzed using probes for prepro-NPY and β-actin. To assess the effect of ICV OA on the expression of hepatic enzymes, total RNA was isolated from freeze-clamped liver tissues from rats subjected to insulin clamp studies. Glc-6-Pase and PEPCK cDNA were obtained as previously described (Combs et al., 2001; Massillon et al., 1996; 1998). Probes were labeled with [α-^32P] dCTP using a random primer kit (Stratagene). Quantification was performed by scanning densitometry, normalizing for β-actin signal and 18S ribosomal RNA to correct for loading variabilities.

rats = rats fed standard chow, prolonged (16 h) fasting; cited from earlier work

| Compound | expression of POMC in the ARC [1] | AgRP mRNA in the ARC ([1]; compared with Control-Ribo) | NPY mRNA in the ARC ([1]; compared with Control-Ribo) | liver expression of PEPCK (PEPCK mRNA) | suppression of hypothalamic NPY mRNA expression (hypothalamic NPY mRNA; 55-kcal/d group, overnight fast) [%] | decrease in hypothalamic NPY mRNA (hypothalamic NPY mRNA; three days of voluntary overfeeding (HF140), fasted) [%] | decrease in hypothalamic NPY mRNA compared with ICV vehicle (rats) [%] |
| --- | --- | --- | --- | --- | --- | --- | --- |
| CPT1L-Ribo: plasmid (pTarget, CMV promoter) expressing a hammerhead ribozyme that specifically cleaves rat CPT1L mRNA, complexed to PEI for ICV injection (DNA CUGUACCAAAGAGCUGUAGAGUCCGUGAGGACGAAACGCCGCUCACAAUG) | not significantly altered | marked decrease | marked decrease |  |  |  |  |
| CCCCCCCC/C=C\CCCCCCCC(=O)O [OA, oleic acid] |  |  |  | failed to significantly alter | ~60 | 28 | ~50 |
